Laboratory results: PubChem BioAssay (NCI)
Values joined by “and” are separate entries in the source; they are usually repeats but may differ in a detail not shown here. Equal values may be shown once.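 In this assay, cells in 96-well plates receive the compound at five concentrations for 48 hours. Endpoints are linearly interpolated between the surrounding concentrations. GI50 marks 50% less growth. TGI is the concentration that stops growth completely.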

Legend:
Assay in all cases: NCI tumour cell line growth inhibition, 48 h
[1] = test system: NCI/ADR-RES ovarian
[2] = test system: SW-620 colon
[3] = test system: UACC-62 melanoma
[4] = test system: 786-0 renal
[5] = test system: PC-3 prostate
[6] = test system: ACHN renal
[7] = test system: MDA-MB-231 breast
[8] = test system: SK-MEL-5 melanoma
[9] = test system: NCI-H460 lung
[10] = test system: HS 578T breast

Row | Compound | GI50 [1] [µM] | TGI [1] [µM] | GI50 [2] [µM] | TGI [2] [µM] | GI50 [3] [µM] | TGI [3] [µM] | GI50 [4] [µM] | TGI [4] [µM] | GI50 [5] [µM] | TGI [5] [µM] | GI50 [6] [µM] | TGI [6] [µM] | GI50 [7] [µM] | TGI [7] [µM] | GI50 [8] [µM] | TGI [8] | GI50 [9] [µM] | TGI [9] [µM] | GI50 [10] [µM] | TGI [10] [µM]
1 | CC(=O)ON(OCc1ccc2ccccc2c1)C(C)=O | > 100 | > 100 | > 100 | > 100 | > 100 | > 100 | > 100 | > 100 | > 100 | > 100 | > 100 | > 100 | > 100 | > 100 | 94.7 | > 100 µM | > 100 | > 100 | 55.2 | > 100
2 | O=[N+]([O-])c1ccccc1N=Nc1c(O)[nH]c2c(Cl)cccc12 | – | > 60.5 | – | > 79 | – | > 82.1 | – | 31.1 | – | > 100 | – | > 45.8 | – | 23.4 | – | > 46.5 µM | – | 38.4 | – | 43.4
3 | S=c1ssnc1-c1cc2ccccc2o1 | 25.7 | 90.7 | 12.7 | 27.6 | 15.5 | 29.4 | 16.5 | 34.8 | 3.82 | 24.2 | 15.2 | 38.8 | 13.3 | 29.4 | 13.6 | 26.7 µM | 11 | 29.5 | 18.5 | 80.7
4 | O=C(O)CNc1ccc2c(c1)Cc1cc(Br)ccc1-2 | – | > 63.3 | – | > 96.8 | – | 76.4 | – | > 84.5 | – | > 100 | – | > 100 | – | > 68.9 | – | 25.8 µM | – | > 60.3 | – | 36.4
5 | O=C1/C(=C/c2ccc(Cl)cc2)CCC1CNc1ccc(Cl)cc1 (stereo not drawn) | – | 67.1 | – | 11.4 | – | 7.29 | – | 6.73 | – | 45.6 | – | 26.9 | – | 20.5 | – | 22 µM | – | > 100 | – | 64.9
6 | CCOc1ccc2nc(NC(=O)C(=O)C3C(=O)C(CC4C(=O)c5ccccc5C4=O)C(=O)CC3(C)C)sc2c1 (stereo not drawn) | – | > 100 | – | > 100 | – | > 100 | – | > 100 | – | > 100 | – | > 100 | – | > 100 | – | > 100 µM | – | > 100 | – | > 100
7 | CCn1cc(C(=O)O)c(=O)c2cc(F)c(N3CCN(S(=O)(=O)c4ccc(Cl)cc4Cl)CC3)cc21 | 3.28 | 28 | 3.91 | > 100 | 1.62 | 3.42 | 3.19 | 14.9 | 2.43 | 10.7 | 2.62 | 7.68 | 1.88 | 4.7 | 1.87 | 3.93 µM | 3.13 | 15.9 | 2.53 | 7.66
8 | COc1cc(C(=O)c2cnc(-c3c[nH]c4cccc(C)c34)[nH]2)cc(OC)c1OC | 0.0123 | – | 0.00416 | > 100 | 0.0044 | > 100 | 0.00681 | > 100 | 0.00537 | > 100 | 0.00846 | 26.7 | 0.0204 | – | 0.00365 | 0.0221 µM and 0.0366 µM | 0.00618 | 35.4 | 0.00655 | > 100
